Data on 19 compounds can be found in ChEMBL document CHEMBL3045473, “Affinity of 3-benzylidene- and 3-cinnamylidenemyosmine analogues for Periplaneta americana nicotinic acetylcholine receptors” (J Pestic Sci, 2006).

Assay [1] addresses T1, Nicotinic acetylcholine receptor alpha8 subunit (Periplaneta americana, UniProt H6TY12).
T1 sequence (H6TY12 whole entry): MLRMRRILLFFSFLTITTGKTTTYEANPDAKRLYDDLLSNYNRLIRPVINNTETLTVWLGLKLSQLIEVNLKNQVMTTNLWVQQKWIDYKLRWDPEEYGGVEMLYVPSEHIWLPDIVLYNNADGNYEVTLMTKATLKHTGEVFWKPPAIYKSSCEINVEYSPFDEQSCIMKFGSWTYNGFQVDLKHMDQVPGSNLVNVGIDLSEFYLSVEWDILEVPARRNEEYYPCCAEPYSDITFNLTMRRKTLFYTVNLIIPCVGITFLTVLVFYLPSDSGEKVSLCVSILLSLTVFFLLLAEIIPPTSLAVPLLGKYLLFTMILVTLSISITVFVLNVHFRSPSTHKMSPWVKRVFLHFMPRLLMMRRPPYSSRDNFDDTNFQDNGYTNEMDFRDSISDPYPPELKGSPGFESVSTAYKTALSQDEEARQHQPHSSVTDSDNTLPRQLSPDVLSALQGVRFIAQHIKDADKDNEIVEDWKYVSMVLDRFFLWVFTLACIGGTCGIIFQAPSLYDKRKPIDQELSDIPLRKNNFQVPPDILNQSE
As to the kind of experiment: Displacement of [3H]epibatidine from nAChR in Periplaneta americana (American cockroach) nerve cords membranes incubated at 24 degC for 2 hr by liquid scintillation counting method. A general note: In a radioligand displacement assay an active substance lowers the binding of a labelled ligand.

Assay [2] concerns the target T2, Nicotinic acetylcholine receptor alpha8 subunit (Periplaneta americana) (UniProt H6TY12).
T2 sequence (whole entry): T1 sequence (H6TY12 whole entry)
As to the kind of experiment: Displacement of [3H]epibatidine from nAChR in Periplaneta americana (American cockroach) nerve cords membranes at 10 uM incubated at 24 degC for 2 hr by liquid scintillation counting method.

By IC50 is commonly meant the point on the concentration scale where inhibition reaches its midpoint. A high value points to lower potency. The inhibition is the change of the read-out against control, counted positive when it falls. Lower therefore signals little suppression. Regarding `Clc1ccc(/C=C2\CCN=C2c2cccnc2)cc1`, the IC50 in assay [1] is > 10 µM. This compound displayed an inhibition in assay [2] of 21.5%.

Compound `Clc1ccc(C2=NCCC/C2=C\c2ccccc2)cn1` returned an IC50 in assay [1] of 0.0212 µM. This counts as double-digit nanomolar.

The compound `Oc1ccc(/C=C2\CCN=C2c2cccnc2)cc1` registered a concentration for half-maximal inhibition (IC50) in assay [1] of 0.31 µM.

In assay [1], `C(=C\c1ccccc1)/C=C1\CCN=C1c1cccnc1` [3-CINNAMYLIDENEMYOSMINE] came in with an IC50 of 3.52 µM.

With `Oc1ccccc1/C=C1\CCN=C1c1cccnc1`, the IC50 in assay [1] came to 6.9 µM.

In the case of `Oc1cccc(/C=C2\CCN=C2c2cccnc2)c1`, the IC50 in assay [1] is > 10 µM. The inhibition in assay [2] turned out to be 32.1%.

Take `CN(C)c1ccc(/C=C/C=C2\CCN=C2c2cccnc2)cc1`: the IC50 in assay [1] came to 2.07 µM.

Regarding `COc1ccc(/C=C2\CCN=C2c2cccnc2)c(OC)c1`, in assay [1], the 50% inhibitory concentration (IC50) came out at 4.55 µM.

Turning to `c1cncc(C2=NCCC2)c1` [MYOSMINE], the IC50 in assay [1] was > 10 µM. For the same compound, the inhibition in assay [2] worked out at 27.3%.

Take `COc1ccc(/C=C2\CCN=C2c2cccnc2)c(O)c1`: in assay [1], the IC50 stood at 3.89 µM. This lies in the single-digit micromolar range.

Regarding `CN(C)c1ccc(/C=C2\CCN=C2c2cccnc2)cc1`, the 50% inhibitory concentration (IC50) in assay [1] amounted to 5.49 µM. The IC50 values of the last two compounds are within 1.5-fold of each other.

`C(=C1/CCCN=C1c1cccnc1)/c1ccccc1` [3-BENZYLIDENEANABASEINE]: in assay [1], the IC50 worked out at 0.035 µM. Against the preceding compound, the IC50 is about 160-fold lower.

Regarding `C(=C1/CCN=C1c1cccnc1)/c1ccccc1`, the IC50 in assay [1] is > 10 µM. This compound also returned an inhibition in assay [2] of 41.3%.

As to `Oc1ccc(/C=C2\CCN=C2c2cccnc2)c(O)c1`, the half-inhibitory concentration (IC50) in assay [1] was 0.12 µM.

As to `N#Cc1ccc(/C=C2\CCN=C2c2cccnc2)cc1`, the half-inhibitory concentration (IC50) in assay [1] is > 10 µM. Besides, the inhibition in assay [2] worked out at 31.4%.

Turning to `COc1cccc(/C=C2\CCN=C2c2cccnc2)c1`, the IC50 in assay [1] is > 10 µM. Further, in assay [2], the inhibition stood at 23.6%.

Take `Fc1ccc(/C=C2\CCN=C2c2cccnc2)cc1`: the IC50 in assay [1] is > 10 µM. For the same compound, the inhibition in assay [2] came out at 22.3%.

Regarding `COc1ccc(/C=C2\CCN=C2c2cccnc2)cc1`, the IC50 in assay [1] was > 10 µM. Besides, in assay [2], the inhibition worked out at 31.4%.

Turning to `COc1ccccc1/C=C1\CCN=C1c1cccnc1`, the half-inhibitory concentration (IC50) in assay [1] was > 10 µM. The compound further registered an inhibition in assay [2] of 49.5%.
